# Data taken from ChEMBL document CHEMBL1201862, “PubChem BioAssay data set” (2004).
# Calls of active or inactive are those of the source.
# Columns and labels:
# CAAX prenyl protease 2 [1] = molecular target: CAAX prenyl protease 2 (Homo sapiens, UniProt Q9Y256); test: inhibition of Ras-converting CAAX protease Rce1 – biochemical, yeast membranes, quenched-peptide fluorescence, cherry-pick, dose response (AID 588849)
# Trypsin = Trypsin (Sus scrofa, UniProt P00761); test: trypsin protease activity blockade – biochemical, quenched peptide fluorescence, cherry-pick, selectivity assay for Rce1 protease inhibitor project, dose response (AID 488789)
# CAAX prenyl protease 2 [2] = molecular target: CAAX prenyl protease 2 (Saccharomyces cerevisiae S288c, UniProt Q03530); assay type: biochemical
# BJ [3] = test: cells; assay type: functional, cell-based; conditions: Homo sapiens
# [4] = HEK-293T cell viability reduction – luminescence, B-cell screen hits, cytotoxicity control for BCR NF-kB inhibitor project, dose response (AID 489021); assay type: functional, cell-based;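 further: HEK-293T cells carrying an NF-kB luciferase reporter; cells exposed to compound for about 14 hours before viability readout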
# BJ [5] = test: BJ-TERT-LT-ST fibroblast viability loss – cell-based, RAS-independent, luminescence, dose response (AID 1935); assay type: functional; conditions: Homo sapiens;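 further: BJ fibroblasts immortalized with TERT plus LT and ST oncogenes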
# [6] = fluconazole-exposed Candida albicans growth modulators – fluorescence, retest, confirmation (AID 2467); assay type: functional, cell-based
# [7] = molecular target: T1, Microphthalmia-associated transcription factor (Homo sapiens, UniProt O75030); test: reducers of TRPM1 reporter luminescence, concentration series – cell-based, SK-MEL-5, cherry-picked, set 3, MITF inhibitor project, dose response (AID 493073); assay type: functional;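 further: SK-MEL-5 melanoma cells with luciferase driven by the MITF target TRPM1 promoter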
# T1 sequence (O75030 whole entry): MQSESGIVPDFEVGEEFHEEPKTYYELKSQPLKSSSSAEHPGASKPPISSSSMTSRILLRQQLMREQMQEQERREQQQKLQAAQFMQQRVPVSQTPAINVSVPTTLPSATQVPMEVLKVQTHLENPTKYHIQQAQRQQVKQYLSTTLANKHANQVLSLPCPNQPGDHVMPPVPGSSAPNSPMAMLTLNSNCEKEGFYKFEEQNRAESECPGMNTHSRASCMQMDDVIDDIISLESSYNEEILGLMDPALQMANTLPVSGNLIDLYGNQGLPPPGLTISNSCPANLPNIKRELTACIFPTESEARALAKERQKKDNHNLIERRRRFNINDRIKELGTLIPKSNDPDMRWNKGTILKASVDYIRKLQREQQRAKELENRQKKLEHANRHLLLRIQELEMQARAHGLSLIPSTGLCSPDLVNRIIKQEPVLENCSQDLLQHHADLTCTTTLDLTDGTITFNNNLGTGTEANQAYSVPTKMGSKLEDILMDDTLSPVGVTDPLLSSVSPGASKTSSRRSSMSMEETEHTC
# INS1 = test: INS-1E survival protection against cytokine death – cell-based, luminescence, retest, dose response (AID 449756); assay type: functional; conditions: Rattus norvegicus;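 further: cell death triggered by IL-1 beta plus TNF-alpha plus IFN-gamma mixture; protective hits raise ATP signal compared with cytokine alone wells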
# [8] = DRD fibroblast viability loss – cell-based, non-viral oncogenic, luminescence, dose response (AID 1934); assay type: functional; conditions: Homo sapiens
# [9] = NIH-3T3 fibroblast cytotoxicity, dose response, cytotoxicity control, cell-based, fluorescence, Alamar Blue, secondary assay (AID 2327); assay type: functional;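 further: NIH-3T3 mouse fibroblasts cultured with fluconazole at 8 µg/mL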
# A-375 [10] = test: proliferation inhibition in MITF-low A375 cells – cell-based, cherry-pick samples, set 2, counter-screen for MITF modulator project, dose response (AID 540335); assay type: functional; conditions: Homo sapiens
# BJ [11] = test: BJ-TERT fibroblast viability loss – cell-based, RAS-independent, luminescence, dose response (AID 1933); assay type: functional; conditions: Homo sapiens
# [12] = molecular target: T2, Endoribonuclease toxin MazF (Escherichia coli K-12, UniProt P0AE70); test: activation of MazEF endoribonuclease cleavage – biochemical, fluorescence, single-stranded RNA substrate, uHTS hits, dose response (AID 588481); assay type: functional
# [13] = molecular target: T2, Endoribonuclease toxin MazF; test: substrate-only fluorescence increase artefacts – biochemical, single-stranded RNase substrate, counter-screen for MazEF activator project, dose response (AID 588502); assay type: functional
# [14] = molecular target: T3, Heat shock factor protein 1 (Mus musculus, UniProt P38532); test: decrease of HSF1-responsive luciferase luminescence – cell-based, NIH3T3, dose retest, confirmation (AID 2382); assay type: functional;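 further: NIH3T3 fibroblasts with HSF1-driven luciferase reporter stressed by proteasome inhibitor MG132; luminescence from HSF1-driven luciferase expression after 8 hours of MG132 stress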
# T3 sequence (P38532 whole entry): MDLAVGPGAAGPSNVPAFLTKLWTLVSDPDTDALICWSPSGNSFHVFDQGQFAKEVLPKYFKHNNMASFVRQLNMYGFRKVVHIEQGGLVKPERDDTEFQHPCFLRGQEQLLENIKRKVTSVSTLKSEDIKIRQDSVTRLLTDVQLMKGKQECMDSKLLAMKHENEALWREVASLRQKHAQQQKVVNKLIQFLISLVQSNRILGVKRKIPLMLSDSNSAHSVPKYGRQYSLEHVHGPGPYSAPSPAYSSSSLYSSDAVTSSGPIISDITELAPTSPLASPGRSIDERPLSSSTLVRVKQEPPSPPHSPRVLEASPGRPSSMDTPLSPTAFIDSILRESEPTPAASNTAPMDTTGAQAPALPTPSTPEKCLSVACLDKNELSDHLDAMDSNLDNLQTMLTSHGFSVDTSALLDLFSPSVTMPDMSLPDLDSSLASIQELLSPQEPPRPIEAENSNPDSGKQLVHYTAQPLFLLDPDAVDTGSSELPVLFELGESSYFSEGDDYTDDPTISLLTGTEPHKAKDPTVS
# X-box-binding protein 1 = molecular target: T4, X-box-binding protein 1 (Homo sapiens, UniProt P17861); assay type: functional, Cricetulus griseus;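 further: confirmatory dose-response counter-screen serving a CHOP assay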
# T4 sequence (P17861 whole entry): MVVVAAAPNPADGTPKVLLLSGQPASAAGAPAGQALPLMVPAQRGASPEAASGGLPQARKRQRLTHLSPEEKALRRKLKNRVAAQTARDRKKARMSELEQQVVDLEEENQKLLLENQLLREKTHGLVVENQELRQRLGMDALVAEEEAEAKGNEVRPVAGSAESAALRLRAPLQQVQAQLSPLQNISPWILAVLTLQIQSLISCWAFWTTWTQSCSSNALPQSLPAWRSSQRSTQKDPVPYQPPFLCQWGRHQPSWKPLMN
# [15] = molecular target: DNA damage-inducible transcript 3 protein (Mus musculus, UniProt P35639); assay type: functional, Cricetulus griseus
# A-375 [16] = test: MITF: Counter assay: A375 proliferation Measured in Cell-Based System Using Plate Reader - 2084-03_Inhibitor_Dose_DryPowder_Activity. [Related pubchem assays (depositor defined):AID488944]; assay type: functional; conditions: Homo sapiens
# T2 sequence (P0AE70 whole entry): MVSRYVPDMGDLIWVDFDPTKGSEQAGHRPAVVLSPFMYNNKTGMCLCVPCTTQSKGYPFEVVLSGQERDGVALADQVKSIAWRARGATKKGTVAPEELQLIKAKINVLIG
# Chain of Trypsin (P00761 whole entry): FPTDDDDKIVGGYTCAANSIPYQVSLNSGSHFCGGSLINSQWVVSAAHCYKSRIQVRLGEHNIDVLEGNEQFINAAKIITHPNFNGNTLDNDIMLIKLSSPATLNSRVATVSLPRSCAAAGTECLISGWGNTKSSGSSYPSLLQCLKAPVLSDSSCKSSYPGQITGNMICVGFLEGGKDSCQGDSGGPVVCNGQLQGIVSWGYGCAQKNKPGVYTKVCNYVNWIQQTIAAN
# Chain of CAAX prenyl protease 2 (Saccharomyces cerevisiae S288c, UniProt Q03530) (Q03530 whole entry): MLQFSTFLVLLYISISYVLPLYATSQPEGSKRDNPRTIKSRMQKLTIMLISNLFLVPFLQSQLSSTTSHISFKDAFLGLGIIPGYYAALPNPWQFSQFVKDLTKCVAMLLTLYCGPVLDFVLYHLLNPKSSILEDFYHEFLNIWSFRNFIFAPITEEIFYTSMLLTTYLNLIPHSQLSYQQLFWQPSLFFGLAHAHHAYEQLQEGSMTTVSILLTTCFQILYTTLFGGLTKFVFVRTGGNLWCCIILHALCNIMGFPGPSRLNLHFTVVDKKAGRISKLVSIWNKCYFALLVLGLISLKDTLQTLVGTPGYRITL
# Chain of DNA damage-inducible transcript 3 protein (P35639 whole entry): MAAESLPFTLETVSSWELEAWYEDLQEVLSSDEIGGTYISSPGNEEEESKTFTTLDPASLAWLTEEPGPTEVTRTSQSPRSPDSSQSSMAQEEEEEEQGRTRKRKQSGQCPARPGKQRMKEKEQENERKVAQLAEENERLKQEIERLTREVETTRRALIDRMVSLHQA
# Chain of CAAX prenyl protease 2 (Homo sapiens, UniProt Q9Y256) (Q9Y256 whole entry): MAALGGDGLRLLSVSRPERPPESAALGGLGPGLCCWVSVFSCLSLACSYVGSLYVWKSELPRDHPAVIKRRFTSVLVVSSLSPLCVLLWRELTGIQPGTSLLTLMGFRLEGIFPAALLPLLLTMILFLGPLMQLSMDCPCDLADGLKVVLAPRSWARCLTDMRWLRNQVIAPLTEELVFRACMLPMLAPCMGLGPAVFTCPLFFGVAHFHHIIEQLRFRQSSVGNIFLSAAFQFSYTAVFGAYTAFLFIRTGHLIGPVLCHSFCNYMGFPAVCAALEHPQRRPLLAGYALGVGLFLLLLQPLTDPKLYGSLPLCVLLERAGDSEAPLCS
smiles,measurement,setting,value
CCN(CC)c1ccc(/C=N/NC(=S)NCc2ccc(OC)cc2)cc1,AC50,CAAX prenyl protease 2 [1],13.6 µM (active)
same,AC50,Trypsin,7.25 µM (active)
same,AC50,CAAX prenyl protease 2 [2],24.8 µM (active)
Cc1ccc(C(=O)Cn2cc(-c3ccc(C)cc3)[n+]3c2CCCCC3)cc1,EC50,BJ [3],> 150 µM (not active)
same,IC50,[4],> 80 µM (inactive)
same,EC50,BJ [5],> 150 µM (not active)
same,EC50,[6],1.32 µM (active)
same,AC50,[7],3.63 µM (active)
same,AC50,INS1,1.3 µM (active)
same,EC50,[8],85.7 µM (active)
same,EC50,[9],> 150 µM (inactive)
same,AC50,A-375 [10],40.5 µM (active)
same,EC50,BJ [11],17.3 µM (active)
C=CCn1c(=N)c(S(=O)(=O)c2ccc(C)c(C)c2)cc2c(=O)n3ccccc3nc21,EC50,[12],31.9 µM (inactive)
same,EC50,[13],52.2 µM (inactive)
O=C(N/N=C/c1ccccc1Cl)c1[nH]nc2c1CCCC2,EC50,[14],16 µM (active)
same,EC50,BJ [3],18.2 µM (active)
same,EC50,BJ [5],> 150 µM (inconclusive)
same,Absolute IC50 (XBP1),X-box-binding protein 1,10 µM
same,Absolute IC50 (CHOP),[15],10 µM
same,AC50,[7],7.97 µM (active)
same,AC50,A-375 [16],48.5 µM (active)
same,EC50,[8],15.8 µM (active)
same,EC50,BJ [11],16.4 µM (active)
